Patent US9725490B2, “ERAP1-derived peptide and use thereof” (TOKUSHIMA UNIVERSITY, priority 2011, dated 2017)

Tests used:
[1] = system: ERα; experiment: ERα down-regulation and polyubiquitination in MCF-7 cells; format: cell-based, human
Protocol: FIG. 4-5 is a diagram illustrating that the ERAP1-peptide promotes nuclear translocation of PHB2. […] Then, the protein level and the mRNA level for the expression of ERα were obtained by Western blotting (the upper panel: Protein) and semi-quantitative RT-PCR (the lower panel: mRNA), respectively. β-actin is a loading control for each. […] MCF-7 cells were treated with the ERAP1-peptide and/or E2 in the presence of 1 μM MG-132 for 1 hour. Then, the cell lysate was immunoprecipitated with anti-ERα antibody.
Down-regulation of ERα was evaluated by semi-quantitative reverse transcription PCR. Complete RNA was extracted using RNeasy Mini purification kit (Qiagen) from E2-treated cells in the presence or in the absence of the ERAP1 peptide, and reverse-transcribed into cDNA using Superscript II reverse transcriptase (Invitrogen), oligo dT primer (nvitrogen) and 25 mM dNTP Mixture (Invitrogen). mRNAs of ERα and β-actin were measured with GeneAmp PCR system (Applied Biosystems, Foster, Calif., USA). The primers are as described below: […]

[2] = Stability of ERAP1-peptide in MCF-7 cells, immunoblotting; format: in vitro ADME, human
Protocol: FIG. 37 is a diagram illustrating the results of evaluations for the stability of the ERAP1-peptide and the influence of the ERAP1-peptide on cellular E2. […] MCF-7 cells were treated with 10 μM HA-tagged ERAP1-peptide. Then, immediately, the cells were temporally stimulated with 10 nM E2. The data are standardized with β-actin, and show the ratio when the value at 1 hour (n=1, 3) or at 3 hours (n=2) is designated as 100. […] MCF-7 cells were treated with 10 μM ERAP1-peptide. Then, immediately, the cells were temporally stimulated with 10 nM E2. The cell lysate was centrifuged, and then the supernatant and a precipitate lysed with methanol were mixed (final concentration of methanol: 10%), and the cellular E2 concentration was measured with a commercially available kit (17β-estradiol ELISA kit, Wako Pure Chemical Industries, Ltd.).

[3] = system: ERα; experiment: ERα down-regulation and polyubiquitination in KPL-3C cells; format: cell-based, human; conditions: in the presence of MG132
Protocol: FIG. 5 is a diagram illustrating the results of immunoblotting analysis by which the effects of the ERAP1-peptide in the down-regulation by polyubiquitination of ERα and proteasome decomposition were evaluated. The upper panel and the lower panel show the results obtained by the procedures described below. Namely, KPL-3C cells were treated with the ERAP1-peptide and/or 10 nM E2 for 1 hour. Then, the protein level and the mRNA level of ERα were examined by Western blotting and semi-quantitative RT-PCR. The results thereof are shown in the upper panel. β-actin is a loading control. Then KPL-3C cells were treated with the ERAP1-peptide and/or E2 in the presence of 1 μM MG-132 for 1 hour. Then, the cell lysate was immunoprecipitated with anti-ERα antibody. The results thereof are shown in the lower panel.

[4] = system: PHB2/REA (Ser39) phosphorylation; experiment: Ser39 phosphorylation of PHB2/REA, MCF-7; format: cell-based, human; conditions: 10 μM
Protocol: FIG. 26-1 is a diagram illustrating the results of evaluations for the phosphorylation in nuclear-translocated Ser39 of PHB2/REA. […] MCF-7 cells were treated with 10 μM ERAP1-peptide. Then, immediately, the cells were stimulated with 10 nM E2 for 24 hours. The cells were fractionated into cytoplasm and nuclear fractions by specific gravity centrifugation. Then, each fraction was immunoprecipitated with anti-PHB2/REA antibody. Then, the cells were lysed. Then, the immunoprecipitated protein and the cell lysate were subjected to immunoblotting analysis with the antibodies shown in the figure. […] Then, immediately, the cells were temporally stimulated with 10 nM E2. Each cell lysate was subjected to immunoblotting analysis with an anti-PHB2/REA antibody and an anti-phosphorylation PHB2/REA (S39) antibody. […] MCF-7 cells were treated with the ERAP1-peptide and λ-phosphatase (400 U) in the presence of 10 nM E2 for 24 hours. After the immobilization, the cells were subjected to immunofluorescent staring. […]
MCF-7 cells were seeded in an 8-well chamber (Laboratory-Tek II Chamber Slide System, Nalgen Nunc International, Naperville, Ill., USA) in 5×10^4 cells/well, and cultured under estrogen-free condition for 24 hours. […] The fluorescence image was obtained under Olympus IX71 microscope (Tokyo, Japan).

CSCC[C@H](NC(=O)[C@H](CCC(N)=O)NC(=O)[C@H](CCCNC(=N)N)NC(=O)[C@H](CCCNC(=N)N)NC(=O)[C@H](CCCNC(=N)N)NC(=O)[C@H](CCCNC(=N)N)NC(=O)[C@H](CCCNC(=N)N)NC(=O)[C@H](CCCNC(=N)N)NC(=O)[C@H](CCCNC(=N)N)NC(=O)[C@H](CCCNC(=N)N)NC(=O)[C@H](CCCNC(=N)N)NC(=O)[C@H](CCCNC(=N)N)NC(=O)[C@@H](N)CCCNC(=N)N)C(=O)N[C@@H](CC(C)C)C(=O)N[C@@H](CO)C(=O)N[C@@H](CC(=O)O)C(=O)N[C@@H](CC(C)C)C(=O)N[C@H](C(=O)N[C@@H](CC(C)C)C(=O)N[C@@H](CCC(N)=O)C(=O)N[C@@H](CC(C)C)C(=O)N[C@@H](CCCNC(=N)N)C(=O)N[C@@H](CCC(N)=O)C(=O)N[C@@H](CCCNC(=N)N)C(=O)O)[C@@H](C)O [ERAP1-peptide]
decrease in the protein level of ERα after estrogen ([1]; MCF-7): the decrease thereof was suppressed | polyubiquitination of ERα ([1]; MCF-7, E2, in the presence of MG132): polyubiquitination of ERα was inhibited | residual percentage of the ERAP1-peptide ([2]; 24 hours after the administration, on average): 84% | residual percentage of the ERAP1-peptide ([2]; after 30 hours): 56% | residual percentage of the ERAP1-peptide ([2]; after 36 hours): 58% | residual percentage of the ERAP1-peptide ([2]; after 48 hours): 54% | half-life ([2]; human, in MCF-7 cells): ~30 h | protein decrease and polyubiquitination of ERα [3]: suppression for protein decrease of ERα was similarly recognized with inhibition of polyubiquitination | E2-dependent Ser phosphorylation of PHB2/REA, successive change ([4]; 10 nM E2): recognized continuously from 1 hour to 24 hours | phosphorylation of Ser39 of nuclear-translocated PHB2/REA ([4]; 10 nM E2 24 hours): recognized for the phosphorylation of Ser39
